From patent US20070191413A1, “Novel heterocycle-substituted hydroxy-6-phenylphenanthridines and their use as pde4 inhibitors” (Atlanta Pharma AG, priority 2004, published 2007) come the findings set out here.

For orientation: IC50 means the midpoint of a concentration-inhibition curve.

Each structure is given as a SMILES string.

The target in the test is T1, PDE4B2 (Homo sapiens, UniProt Q07343).
T1 construct: made in house; host or cells: SF21 insect cells (baculovirus; virus prepared in SF9 cells)
T1 sequence (Q07343 1-564 isoform Q07343-2): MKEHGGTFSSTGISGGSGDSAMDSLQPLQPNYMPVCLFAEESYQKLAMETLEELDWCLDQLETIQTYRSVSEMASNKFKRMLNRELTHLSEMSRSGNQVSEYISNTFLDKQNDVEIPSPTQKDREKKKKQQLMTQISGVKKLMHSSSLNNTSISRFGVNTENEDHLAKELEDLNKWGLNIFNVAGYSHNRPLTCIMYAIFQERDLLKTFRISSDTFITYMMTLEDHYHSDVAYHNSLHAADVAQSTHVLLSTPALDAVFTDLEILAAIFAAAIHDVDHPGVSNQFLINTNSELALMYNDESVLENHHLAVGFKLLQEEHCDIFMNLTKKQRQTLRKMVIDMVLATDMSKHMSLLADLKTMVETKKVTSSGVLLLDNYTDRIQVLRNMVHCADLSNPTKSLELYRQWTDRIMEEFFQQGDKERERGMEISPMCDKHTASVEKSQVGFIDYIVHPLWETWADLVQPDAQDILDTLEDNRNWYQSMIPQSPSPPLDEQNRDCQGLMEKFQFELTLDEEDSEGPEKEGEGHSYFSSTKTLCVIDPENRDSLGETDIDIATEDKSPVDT
The experiment in a line: Inhibition of PDE4B2 activity in a modified SPA (scintillation proximity assay) test. Format: biochemical. To be noted: recombinant PDE4B2 (SF21 cell supernatant), [3H]cAMP SPA, 0.5 μM cAMP, 37° C.; value given as a range for the group of listed compounds; read-out: Inhibition of the PDE4 activity, −log IC50 (converted). The procedure: The PDE4B2 (GB no. M97515) was a gift of Prof. M. Conti (Stanford University, USA). It was amplified from the original plasmid (pCMV5) via PCR with primers Rb9 (5′-[…]-3′) and Rb10 (5′-[…]-3′) and cloned into the pCR-Bac vector (Invitrogen, Groningen, NL).
The recombinant baculovirus was prepared by means of homologous recombination in SF9 insect cells. The expression plasmid was cotransfected with Bac-N-Blue (Invitrogen, Groningen, NL) or Baculo-Gold DNA (Pharmingen, Hamburg) using a standard protocol (Pharmingen, Hamburg). Wt virus-free recombinant virus supernatant was selected using plaque assay methods. After that, high-titre virus supernatant was prepared by amplifying 3 times. PDE was expressed in SF21 cells by infecting 2×10^6 cells/ml with an MOI (multiplicity of infection) between 1 and 10 in serum-free SF900 medium (Life Technologies, Paisley, UK). The cells were cultured at 28° C. for 48-72 hours, after which they were pelleted for 5-10 min at 1000 g and 4° C.
The SF21 insect cells were resuspended, at a concentration of approx. 10^7 cells/ml, in ice-cold (4° C.) homogenization buffer (20 mM Tris, pH 8.2, containing the following additions: 140 mM NaCl, 3.8 mM KCl, 1 mM EGTA, 1 mM MgCl2, 10 mM P-mercaptoethanol, 2 mM benzamidine, 0.4 mM Pefablock, 10 μM leupeptin, 10 μM pepstatin A, 5 μM trypsin inhibitor) and disrupted by ultrasonication. The homogenate was then centrifuged for 10 min at 1000×g and the supernatant was stored at −80° C. until subsequent use (see below). The protein content was determined by the Bradford method (BioRad, Munich) using BSA as the standard.
PDE4B2 activity is inhibited by the said compounds in a modified SPA (scintillation proximity assay) test, supplied by Amersham Biosciences (see procedural instructions “phosphodiesterase [3H]cAMP SPA enzyme assay, code TRKQ 7090”), carried out in 96-well microtitre plates (MTP's). The test volume is 100 μl and contains 20 mM Tris buffer (pH 7.4), 0.1 mg of BSA (bovine serum albumin)/ml, 5 mM Mg^2+, 0.5 μM cAMP (including about 50,000 cpm of [3H]cAMP), 1 μl of the respective substance dilution in DMSO and sufficient recombinant PDE (1000×g supernatant, see above) to ensure that 10-20% of the CAMP is converted under the said experimental conditions. […] After a preincubation of 5 min at 37° C., the reaction is started by adding the substrate (cAMP) and the assay is incubated for a further 15 min; after that, it is stopped by adding SPA beads (50 μl). In accordance with the manufacturer's instructions, the SPA beads had previously been resuspended in water, but were then diluted 1:3 (v/v) in water; the diluted solution also contains 3 mM IBMX to ensure a complete PDE activity stop. After the beads have been sedimented (>30 min), the MTP's are analyzed in commercially available luminescence detection devices. The corresponding IC50 values of the compounds for the inhibition of PDE activity are determined from the concentration-effect curves by means of non-linear regression.
On to `CCn1nnc(-c2ccc(C3=N[C@@H]4CC[C@@H](O)C[C@@H]4c4cc(OC(F)F)c(OC)cc43)cc2)n1` (racemic) [Compound 8, (2RS,4aRS,10bRS)-9-(1,1-Difluoro-methoxy)-6-[4-(2-ethyl-2H-tetrazol-5-yl)-phenyl]-8-methoxy-1,2,3,4,4a,10b-hexahydro-phenanthridin-2ol], for which the IC50 is 0.724 to 7.41 nM.

For `CCOc1cc2c(cc1OC)C(c1ccc(-c3csnn3)cc1)=N[C@@H]1CC[C@@H](O)C[C@H]21` (racemic) [Compound 4, (2RS,4aRS,10bRS)-9-Ethoxy-8-methoxy-6-(4-[1,2,3]thiadiazol-4-yl-phenyl)-1,2,3,4,4a,10b-hexahydro-phenanthridin-2ol], the 50% inhibitory concentration (IC50) is 0.724 to 7.41 nM.

For `CCn1nnc(-c2ccc(C3=N[C@@H]4CC[C@@H](O)C[C@@H]4c4cc(OC)c(OC(F)F)cc43)cc2)n1` (racemic) [Compound 7, (2RS,4aRS,10bRS)-8-(1,1-Difluoro-methoxy)-6-[4-(2ethyl-2H-tetrazol-5-yl)-phenyl]-9-methoxy-1,2,3,4,4a,10b-hexahydro-phenanthridin-2-ol], the IC50 was 0.724 to 7.41 nM.

`CCOc1cc2c(cc1OC)C(c1ccc(-c3nc(OC)cc(OC)n3)cc1)=N[C@@H]1CC[C@@H](O)C[C@H]21` (racemic) [Compound 3, (2RS,4aRS,10bRS)-6-[4-(4,6-Dimethoxy-pyrimidin-2-yl)-phenyl]-9-ethoxy-8-methoxy-1,2,3,4,4a,10b-hexahydro-phenanthridin-2-ol]: the half-maximal inhibitory concentration (IC50) was 0.724 to 7.41 nM.

As for `CCOc1cc2c(cc1OC)C(c1ccc(-n3ccnc3)cc1)=N[C@@H]1CC[C@@H](O)C[C@H]21` (racemic) [Compound 1, (2RS,4aRS,10bRS)-9-Ethoxy-6-(4-imidazol-1 yl-phenyl)-8-methoxy-1,2,3,4,4a,10b-hexahydro-phenanthridin-2-ol], the IC50 is 0.724 to 7.41 nM.

Regarding `CCCn1nnc(-c2ccc(C3=N[C@@H]4CC[C@@H](O)C[C@@H]4c4cc(OC)c(OC)cc43)cc2)n1` (racemic) [Compound 6, (2RS,4aRS,10bRS)-8,9-Dimethoxy-6-[4-(2-propyl-2H-tetrazol-5-yl)-phenyl]-1,2,3,4,4a,10b-hexahydro-phenanthridin-2-ol], the concentration for half-maximal inhibition (IC50) was 0.724 to 7.41 nM.

Consider `CCOc1cc2c(cc1OC)C(c1ccc(N3CCN(C)CC3)cc1)=N[C@@H]1CC[C@@H](O)C[C@H]21` (racemic) [Compound 2, (2RS,4aRS,10bRS)-9-Ethoxy-8-methoxy-6-[4-(4-methyl-piperazin-1-yl)-phenyl]-1,2,3,4,4a,10b-hexahydro-phenanthridin-2-ol], for which the IC50 is 0.724 to 7.41 nM.

For the compound `CCOc1cc2c(cc1OC)C(c1ccc(N3CCOCC3)cc1)=N[C@@H]1CC[C@@H](O)C[C@H]21` (racemic) [Compound 5, (2RS,4aRS,10bRS)-9-Ethoxy-8-methoxy-6-(4-morpholin-4-yl-phenyl)-1,2,3,4,4a,10b-hexahydro-phenanthridin-2-ol], the IC50 is 0.724 to 7.41 nM.
